Measurements from patent publication US6440979B1, “Aryl isoguanines” (Euro-Celtique, S.A., priority 1994, dated 2002).
Where two headings read alike, the source gives them in different places.

Legend:
[1] = target: T1, Type III PDE isolated from human platelets (Homo sapiens, UniProt Q14432); experiment: Type III PDE inhibition, hydrolysis of [3H]-cyclic AMP; format: biochemical
T1 construct: Fractions containing PDE III activity are pooled and dialyzed overnight; from tissue; host or cells: human platelets (100,000 x g supernatant, DEAE-Trisacryl M fraction)
T1 sequence (Q14432 whole entry): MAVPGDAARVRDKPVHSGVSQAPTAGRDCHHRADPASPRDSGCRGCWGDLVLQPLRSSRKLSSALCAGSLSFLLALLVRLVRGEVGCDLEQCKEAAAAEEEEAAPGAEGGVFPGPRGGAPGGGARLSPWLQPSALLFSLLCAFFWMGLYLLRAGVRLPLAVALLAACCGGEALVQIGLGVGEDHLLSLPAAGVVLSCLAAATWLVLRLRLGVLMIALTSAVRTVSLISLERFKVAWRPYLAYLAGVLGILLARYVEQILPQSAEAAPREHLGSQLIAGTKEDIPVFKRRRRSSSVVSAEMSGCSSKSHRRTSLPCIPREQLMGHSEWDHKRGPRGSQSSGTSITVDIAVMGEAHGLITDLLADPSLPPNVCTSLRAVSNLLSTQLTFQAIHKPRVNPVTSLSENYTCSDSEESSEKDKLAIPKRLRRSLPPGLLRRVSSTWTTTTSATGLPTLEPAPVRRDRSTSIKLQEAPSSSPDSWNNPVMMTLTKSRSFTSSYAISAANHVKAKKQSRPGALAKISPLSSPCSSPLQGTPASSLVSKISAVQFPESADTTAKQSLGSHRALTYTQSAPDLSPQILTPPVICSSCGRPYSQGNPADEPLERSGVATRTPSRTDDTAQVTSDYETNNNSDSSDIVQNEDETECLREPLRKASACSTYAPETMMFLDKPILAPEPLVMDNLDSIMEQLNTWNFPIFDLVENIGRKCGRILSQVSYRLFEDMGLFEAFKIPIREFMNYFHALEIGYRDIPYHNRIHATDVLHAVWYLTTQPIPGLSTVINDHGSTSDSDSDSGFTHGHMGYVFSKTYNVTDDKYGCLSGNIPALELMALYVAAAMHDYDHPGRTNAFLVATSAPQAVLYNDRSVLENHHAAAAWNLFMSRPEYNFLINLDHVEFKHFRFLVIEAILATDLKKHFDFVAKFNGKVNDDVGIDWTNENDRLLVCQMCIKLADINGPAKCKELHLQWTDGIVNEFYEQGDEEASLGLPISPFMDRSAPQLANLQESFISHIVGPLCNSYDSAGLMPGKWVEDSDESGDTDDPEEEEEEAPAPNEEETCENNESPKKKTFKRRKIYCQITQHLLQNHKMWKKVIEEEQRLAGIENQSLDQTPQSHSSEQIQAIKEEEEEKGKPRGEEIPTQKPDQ
Experimental: The Type III PDE is isolated from human platelets using a procedure similar to that previously described by Weishaar, R. E. et al., Biochem. Pharmacol., 35:787, 1986. Briefly, 1-2 units of platelets are suspended in an equal volume of buffer (20 mM Tris-HCl, pH 7.5, containing 2 mM magnesium acetate, 1 mM dithiothreitol, and 5 mM Na2 EDTA). The proteinase inhibitor phenylmethyl-sulfonyl fluoride (PMSF) is also included in this buffer at a final concentration of 200 μM. The suspension is homogenized using a polytron and the homogenate centrifuged at 100,000×g for 60 minutes. This and all subsequent procedures are performed at 0-4° C. The supernatant is then filtered through four layers of gauze and applied to a DEAE-Trisacryl M column, previously equilibrated with buffer B (20 mM Tris-HCl, pH 7.5, containing 1 mM magnesium acetate, 1 mM dithiothreitol and 200 μM PMSF). After application of the sample, the column is washed with several bed volumes of buffer B, after which the different forms of PDE are eluted from the column using two successive linear NaCl gradients (0.05-0.15 M, 300 ml total; 0.15-0.40 Ma 200 ml total); Five ml fractions are collected and assayed for cyclic AMP and cyclic GMP PDE activity., Fractions containing PDE III activity are pooled and dialyzed overnight against 4 L of buffer B. The dialyzed PDE III is then concentrated to 10% of the original volume, diluted to 50% with ethylene glycol monoethyl ether and stored at −20° C. PDE III can typically be retained for up to four weeks with little or no loss of activity.
(§1) Enzyme activity is assessed by measuring the hydrolysis of [(^3H]-cyclic AMP, as described by Thompson, W. J. et al., Adv. Cyclic Nucleotide Res. 10:69, 1979. The cyclic AMP concentration used in this assay is 0.2 μM, which approximates to the Km value. Protein concentration is adjusted to ensure that no more than 15% of the available substrate is hydrolyzed during the incubation period.
(§2) All test compounds are dissolved in dimethyl sulfoxide (final concentration of 2.5%). This concentration of dimethyl sulfoxide inhibits enzyme activity by approximately 10%.
(§3) The compounds are tested over concentration range: 0.1, 1, 10, 100 uM (n=1), and IC50 determinations are made using 5 appropriate concentrations (n=2).

[2] = target: T2, Type V PDE isolated from platelets (Homo sapiens, UniProt O76074); experiment: Type V PDE inhibition, hydrolysis of [3H]-cyclic GMP; format: biochemical; settings: cyclic GMP 0.2 uM; 2.5% DMSO
T2 construct: Fractions that contain PDE V are pooled and dialyzed overnight; from tissue
Experimental: The Type V PDE is isolated using a procedure similar to that previously described by Weishaar et al., Hypertension 15:528, (1990). Briefly, 1-2 units of platelets are suspended in an equal volume of buffer A (20 mM Tris-HCl, pH 7.5, containing 2 mM magnesium acetate, 1 mM dithiothreitol, and 5 mM Na2EDTA) using a polytron. The proteinase inhibitor phenylmethylsulfonyl fluoride (PMSF) are also included in this buffer at a final concentration of 200 uM. This and all subsequent procedures are performed at 0-4° C. The homogenate is then centrifuges at 100,000×g for 60 minutes. The supernatant is then removed and filtered through four layers of gauze and applied to a DEAE-Trisacryl M column. The column is washed with several bed volumes of buffer B (20 mM Tris-HCl, pH 7.5, containing 2 mM magnesium acetate, 1 mM diothiothreitol, and 200 uM PMSF) and eluted by two successive linear NaCl gradients (0.05-0.15 M, 300 ml total; 0.15-0.40 M, 200 ml total). Five ml fractions are collected and assayed for cyclic AMP and cyclic GMP PDE activity. Fractions that contain PDE V are pooled and dialyzed overnight against 4 L of buffer C (20 mm Tris-HCl, pH 7.5, containing 2 mM magnesium acetate and proteinase inhibitors). The dialyzed PDE V is then concentrated to 10% of the original volume, diluted to 50% with ethylene glycol monoethyl ether and stored at −20° C. PDE V can typically be retained for up to four weeks with little or no loss of activity.
Enzyme activity are assessed by measuring the hydrolysis of [^3H]-cyclic […], as described by Thompson et al. (Thompson, W. J., Teraski, W. L., Epstein, P. N., Strada, S. J.: Adv. Cyclic Nucleotide Res. 10:69, 1979). The cyclic GMP concentration used in this assay is 0.2 uM, which approximates to the Km value. Protein concentration is adjusted to ensure that no more than 15% of the available substrate is hydrolyzed during the incubation period.
All test compounds are dissolved in dimethyl sulfoxide (final concentration of 2.5%). […] The reference Type V PDE inhibitor zaprinast is evaluated with each assay.
as §3

[3] = test system: PDE IV isolated from bovine tracheal smooth muscle; experiment: Type IV PDE inhibition, hydrolysis of [3H]-cyclic AMP; format: biochemical; settings: cyclic AMP 0.2 μM; 2.5% DMSO
Source text: The PDE IV inhibitory compounds of the present invention may be examined for their PDE IV inhibitory effects via the techniques set forth in the following examples, wherein the ability of the compounds to inhibit PDE IV isolated from bovine tracheal smooth muscle is set forth.
The Type IV PDE is isolated from bovine tracheal smooth muscle using a procedure similar to that previously described by Silver, P. J. et al., Eur. J. Pharmacol. 150:85,1988. Briefly, smooth muscle from bovine trachea is minced and homogenized using a polytron in 10 volumes of an extraction buffer containing 10 mm Tris-acetate (pH 7.5), 2 mM magnesium chloride, 1 mM dithiothreitol and 2,000 units/ml of aprotinin. This and all subsequent procedures are performed at 0-4° C. The homogenate is sonicated and then centrifuged at 48,000×g for 30 minutes. The resulting supernatant is applied to a DEAE Trisacryl M column previously equilibrated with sodium acetate and dithiothreitol. After applications of the sample, the column is washed with sodium acetate/dithiothreitol, after which the different forms of PDE are eluted from the column using a linear Tris-HCl/NaCl gradient. Fractions containing Type IV PDE are collected, dialyzed and concentrated to 14% of the original volume. The concentrated fractions are diluted to 50% with ethylene glycol and stored at −20° C.
as §1, with “[^3H]-cyclic” for “[(^3H]-cyclic”, “approximates” for “approximates to”
as §2, §3

[4] = cyclic AMP 0.2 μM, 2.5% DMSO, read-out: PDE ACTIVITY IC50 PDE III

Row | melting point | IC50 [1, 4] | IC50 ([1]; read-out: IC50 for PDE III inhibition) | IC50 [2] | IC50 [3] | Compound
1 | 192 to 193 °C |  |  |  |  | COc1ccc(Cn2c(=O)[nH]c(=S)c3[nH]c(C(C)C)nc32)cc1OC1CCCC1 (hydrate or solvate) [Ex. 1, 3-(3-Cyclopentyloxy-4-methoxy-benzyl)-8-isopropyl-6-thioxanthine]
2 |  | 25 µM | ~25 µM | 25.7 µM |  | COc1ccc(Cn2c(=O)[nH]c(=S)c3[nH]c(C(C)C)nc32)cc1OC1CCCC1 [Ex. 1, 3-(3-Cyclopentyloxy-4-methoxy-benzyl)-8-isopropyl-6-thioxanthine]
3 | 313 to 317 °C | 25 µM |  |  | 78 µM | O=c1[nH]c(=S)c2[nH]cnc2n1Cc1ccc(Cl)cc1 [Ex. 2, 3-(4-Chlorobenzyl)-6-thioxanthine]
4 | 310 to 314 °C (dec.) | 215 µM |  |  | 18.2 µM | CC(C)c1nc2c([nH]1)c(=S)[nH]c(=O)n2Cc1ccncc1 [Ex. 3, 8-Isopropyl-3-(4-picolyl)-6-thioxanthine]
5 | 218 to 220 °C | 44 µM |  | 0.7 µM | 4.1 µM | CC(C)c1nc2c([nH]1)c(=S)[nH]c(=O)n2Cc1cccc(Cl)c1 [Ex. 4, 3-(3-Chlorobenzyl)-8-isopropyl-6-thioxanthine]
6 |  | 29 µM |  | 2 µM | 8.6 µM | CC(C)c1nc2c([nH]1)c(=S)[nH]c(=O)n2Cc1ccc(Cl)cc1 [Ex. 5a, 3-(4-Chlorobenzyl)-8-isopropyl-6-thioxanthine]
7 |  | 317 µM |  | 0.5 µM | 9.4 µM | CCNc1nc(=O)n(Cc2ccc(Cl)cc2)c2nc(C(C)C)[nH]c12 [Ex. 5b, 3-(4-Chlorobenzyl)-N^6-ethyl-8-isopropyl-isoguanine]
8 | 208 to 210 °C | 492 µM |  |  | 24 µM | CCCNc1nc(=O)n(CC2CC2)c2nc(C(C)C)[nH]c12 [Ex. 6, 3-Cyclopropylmethyl-8-isopropyl-N^6-propyl-isoguanine]
9 |  | 207 µM |  |  | 51 µM | CCNc1nc(=O)n(CC)c2nc(C3CC3)[nH]c12 [Ex. 7, 8-Cyclopropyl-3, N^6-diethyl-isoguanine]
10 | 195 to 197 °C | 28.2 µM |  | 23.9 µM | 4 µM | CCn1c(=O)[nH]c(=S)c2[nH]c(Cc3ccc(OC)c(OC4CCCC4)c3)nc21 [Ex. 8, 8-(3-cyclopentyloxy-4-methoxybenzyl)-3-ethyl-6-thio-xanthine]
11 | 237 to 239 °C | 23.6 µM |  |  | 8.5 µM | CCCn1c(=O)[nH]c(=S)c2[nH]c(Cc3ccc(OC)c(OC)c3)nc21 [Ex. 9, 8-(3,4-dimethoxybenzyl)-3-propyl-6-thio-xanthine]
12 | 220 to 223 °C | 2.7 µM |  | 3.8 µM | 2.8 µM | CCCn1c(=O)[nH]c(=S)c2[nH]c(Cc3ccc4ccccc4c3)nc21 [Ex. 10, 8-(2-naphthylmethyl)-3-propyl-6-thio-xanthine]
13 |  | 311 µM |  | 65.4 µM |  | CC(C)c1nc2c([nH]1)c(=S)[nH]c(=O)n2-c1cccc(Cl)c1 [Ex. 11, 3-(3-Chlorophenyl)-8-isopropyl-6-thioxanthine]
14 |  | 790 µM |  |  | 2.6 µM | COc1ccc(C2CNC(=O)C2)cc1OC1CCCC1 (centres unmarked) [Rolipram, reference compound]
15 | 110 to 115 °C |  |  |  |  | CCNc1nc(=O)n(Cc2ccc(OC)c(OC3CCCC3)c2)c2nc(C(C)C)[nH]c12 [compound 12, 3-(3-Cyclopentyloxy-4-methoxy-benzyl)-N^6-ethyl-8-isopropyl-isoguanine]
